Target: T1, RAD52 (Homo sapiens, UniProt P43351)
T1 construct: made in house
T1 sequence (P43351 1-418): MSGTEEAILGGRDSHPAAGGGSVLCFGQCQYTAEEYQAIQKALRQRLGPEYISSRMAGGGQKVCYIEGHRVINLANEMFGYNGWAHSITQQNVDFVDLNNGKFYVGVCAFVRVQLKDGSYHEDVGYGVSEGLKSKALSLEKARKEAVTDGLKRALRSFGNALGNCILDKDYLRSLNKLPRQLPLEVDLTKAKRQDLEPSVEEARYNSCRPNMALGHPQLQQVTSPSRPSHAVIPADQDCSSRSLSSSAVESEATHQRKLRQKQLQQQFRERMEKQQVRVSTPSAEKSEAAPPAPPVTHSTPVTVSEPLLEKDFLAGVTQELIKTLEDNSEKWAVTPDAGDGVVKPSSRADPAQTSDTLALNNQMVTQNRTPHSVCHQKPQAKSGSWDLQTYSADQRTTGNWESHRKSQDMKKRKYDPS
Test: D-loop formation assay
Type: biochemical
Conditions: compound at 10 μM; 32P-labeled ssDNA (oligo 90) and supercoiled pUC19 DNA, 37° C.

| SMILES | D-Loop (% @10 μM) |
| --- | --- |
| S=C(NCCN1CCCCCC1)Nc1ccc2nc(N3CCNCC3)ccc2c1 [compound 0021] | 40.29% |
| S=C(NCCCN1CCCCCC1)Nc1ccc2nc(N3CCNCC3)ccc2c1 [compound 0022] | 37.7% |
| CCN1CCN(c2cc(C)c3cc(NC(=S)NCCN4CCCCC4)ccc3n2)CC1 [compound 0025] | 36.08% |
| CCN1CCN(c2cc(C)c3cc(NC(=S)NCCCN4CCCCC4)ccc3n2)CC1 [compound 0026] | 11.42% |
| CCN1CCN(c2cc(C)c3cc(NC(=S)NCCN4CCCCCC4)ccc3n2)CC1 [compound 0027] | 23.26% |
| CCN1CCN(c2cc(C)c3cc(NC(=S)NCCCN4CCCCCC4)ccc3n2)CC1 [compound 0028] | 46.57% |
| CCN1CCN(c2cc(C)c3cc(NC(=S)NCCN4CCCC4)ccc3n2)CC1 [compound 0029] | 46.67% |
| CCN1CCN(c2cc(C)c3cc(NC(=S)NCCN)ccc3n2)CC1 [compound 0033] | 12.77% |
| CCN1CCN(c2cc(C)c3cc(NC(=S)NCCN(C(C)C)C(C)C)ccc3n2)CC1 [compound 0035] | 64.68% |
| CCN(CC)CCCCNC(=S)Nc1ccc2nc(N3CCN(CC)CC3)cc(C)c2c1 [compound 0036] | 64.62% |
| CCN(CC)CCNC(=O)Nc1ccc2nc(N3CCN(CC)CC3)cc(C)c2c1 [compound 0038, 1-(2-(diethylamino)ethyl)-3-(2-(4-ethylpiperazin-1-yl)-4-methylquinolin-6-yl)urea] | 77.7% |
| CCN1CCN(c2cc(C)c3cc(NC(=O)NCCCN4CCCCCC4)ccc3n2)CC1 [compound 0039, 1-(3-(azepan-1-yl)propyl)-3-(2-(4-ethylpiperazin-1-yl)-4-methylquinolin-6-yl)urea] | 93.38% |
| CCN1CCN(c2cc(C)c3cc(NC(=S)NCCN4CCCCCCC4)ccc3n2)CC1 [compound 0041] | 62.62% |
| CCN1CCN(c2cc(C)c3cc(NC(=S)NCCCN4CCC4)ccc3n2)CC1 [compound 0042] | 53.70% |
| CCN1CCN(c2cc(C)c3cc(NC(=S)NCC(C)(CN)CN)ccc3n2)CC1 [compound 0044] | 50.05% |
| CCN1CCN(c2cc(C)c3cc(NC(=S)NCCN4CCNCC4)ccc3n2)CC1 [compound 0045] | 55.68% |
| CCN1CCN(c2cc(C)c3cc(NC(=S)NCCN4CCN(C)CC4)ccc3n2)CC1 [compound 0046] | 18.73% |
| CCN1CCN(c2cc(C)c3cc(NC(=S)NCCCCN)ccc3n2)CC1 [compound 0047] | 7.92% |
| CCN(CC)CCNC(=S)Nc1ccc2nc(N3CCNCC3)cc(C)c2c1 [compound 0048] | 15.65% |
| CCN(CC)CCNC(=S)Nc1ccc2nc(N3CCN(CC4CC4)CC3)cc(C)c2c1 [compound 0049] | 44.4% |

| SMILES | D-Loop (% @10 μM) |
| --- | --- |
| CCN(CC)CCNC(=S)Nc1ccc2nc(N3CCN(CC4CCCCC4)CC3)cc(C)c2c1 [compound 0050] | 62.82% |
| CCN(CC)CCNC(=S)Nc1ccc2nc(N3CCN(CC4CCCNC4)CC3)cc(C)c2c1 (centres unmarked) [compound 0051] | 10.13% |
| CCN(CC)CCNC(=S)Nc1ccc2nc(N3CCN(CC4CCNCC4)CC3)cc(C)c2c1 [compound 0052] | 4.07% |
| CCC(C)[C@H](N)C(=O)N1CCN(c2cc(C)c3cc(NC(=S)NCCN(CC)CC)ccc3n2)CC1 (some centres unmarked) [compound 0053] | 54.13% |
| CCN(CC)CCNC(=S)Nc1ccc2nc(N3CCN(C(=O)C4CCCN4)CC3)cc(C)c2c1 (centres unmarked) [compound 0054] | 53.78% |
| CCN(CC)CCNC(=S)Nc1ccc2nc(N3CCN(C(=O)C4CNCCN4)CC3)cc(C)c2c1 (centres unmarked) [compound 0055] | 27.42% |
| CCN1CCN(c2cc(C)c3cc(NC(=S)NCCCCCN)ccc3n2)CC1 [compound 0056] | 0.31% |
| CCN1CCN(c2cc(C)c3cc(NC(=S)NCCCNC)ccc3n2)CC1 [compound 0057] | 52.1% |
| CCN1CCN(c2cc(C)c3cc(NC(=S)N(C)CCCN)ccc3n2)CC1 [compound 0058] | 25.89% |
| Cc1cc(N2CCN(CC3CCCNC3)CC2)nc2ccc(NC(=S)NCCN3CCCCCC3)cc12 (centres unmarked) [compound 0059] | 1.3% |
| Cc1cc(N2CCN(CC3CCNCC3)CC2)nc2ccc(NC(=S)NCCN3CCCCCC3)cc12 [compound 0060] | 0.66% |
| Cc1cc(N2CCN(CC3CCCNC3)CC2)nc2ccc(NC(=S)NCCCN3CCCCCC3)cc12 (centres unmarked) [compound 0062] | 1.89% |
| Cc1cc(N2CCN(CC3CCNCC3)CC2)nc2ccc(NC(=S)NCCCN3CCCCCC3)cc12 [compound 0063] | 1.58% |
| Cc1cc(N2CCN(CC3CCCNC3)CC2)nc2ccc(NC(=S)NCCCN3CCCC3)cc12 (centres unmarked) [compound 0064] | 1.5% |
| Cc1cc(N2CCN(CC3CCNCC3)CC2)nc2ccc(NC(=S)NCCCN3CCCC3)cc12 [compound 0065] | 1.04% |
| CCN1CCN(c2cc(C)c3cc(NC(=S)NCCCCN(C)C)ccc3n2)CC1 [compound 0067] | 35.65% |
| CCN1CCN(c2cc(C)c3cc(NC(=S)NCCCN4CCCC4)ccc3n2)CC1 [compound 0068] | 30.62% |
| CCN1CCN(c2cc(C)c3cc(NC(=S)NCCC4CCCN4)ccc3n2)CC1 (centres unmarked) [compound 0069] | 20.7% |
| CCN1CCN(c2cc(C)c3cc(NC(=S)NCCN4CCC(CN5CCCC5)C4)ccc3n2)CC1 (centres unmarked) [compound 0073] | 16.42% |
| CCN1CCN(c2cc(C)c3cc(NC(=S)NCCCN)ccc3n2)CC1 [compound 0077] | 21.2% |

| SMILES | D-Loop (% @10 μM) |
| --- | --- |
| CCN1CCN(c2cc(C)c3cc(NC(=S)NCCCN4CCNCC4)ccc3n2)CC1 [compound 0079] | 25.15% |
| CCN(CC)CCNC(=S)Nc1ccc2nc(N3CCN(CCN)CC3)cc(C)c2c1 [compound 0080] | 35.63% |
| CCN(CC)CCNC(=S)Nc1ccc2nc(N3CCN(Cc4nccn4C)CC3)cc(C)c2c1 [compound 0084] | 68.84% |
| CCN(CC)CCNC(=S)Nc1ccc2nc(N3CCN(CC(N)CO)CC3)cc(C)c2c1 (centres unmarked) [compound 0086] | 4.44% |
| CCN(CC)CCNC(=S)Nc1ccc2nc(N3CCN(CCC4CCC(N)CC4)CC3)cc(C)c2c1 (centres unmarked) [compound 0087] | 0% |
| CCN(CC)CCNC(=S)Nc1ccc2nc(N3CCCC3)cc(C)c2c1 [compound 0088] | 8.25% |
| Cc1cc(N2CCCC2)nc2ccc(NC(=S)NCCN3CCCCCC3)cc12 [compound 0089] | 3.48% |
| Cc1cc(N2CCCC2)nc2ccc(NC(=S)NCCN3CCCCC3)cc12 [compound 0090] | 2.93% |
| Cc1cc(N2CCCC2)nc2ccc(NC(=S)NCCCN3CCCCC3)cc12 [compound 0091] | 3.47% |
| Cc1cc(N2CCCC2)nc2ccc(NC(=S)NCCCN3CCCC3)cc12 [compound 0092] | 5.98% |
| Cc1cc(N2CCCC2)nc2ccc(NC(=S)NCCN)cc12 [compound 0093] | 4.86% |
| Cc1cc(N2CCCC2)nc2ccc(NC(=S)NCCCN)cc12 [compound 0094] | 4.26% |
| Cc1cc(N2CCCC2)nc2ccc(NC(=S)NCCCCN)cc12 [compound 0095] | 4.51% |
| Cc1cc(N2CCCC2)nc2ccc(NC(=S)NCCN3CCNCC3)cc12 [compound 0096] | 3.99% |
| Cc1cc(N2CCCC2)nc2ccc(NC(=S)NCCN3CCN(C)CC3)cc12 [compound 0097] | 4.72% |
| CCN(CC)CCNC(=S)Nc1ccc2nc(N3CCCCC3)cc(C)c2c1 [compound 0098] | 70.99% |
| Cc1cc(N2CCCCC2)nc2ccc(NC(=S)NCCN3CCCCCC3)cc12 [compound 0099] | 67.50% |
| Cc1cc(N2CCN(CC3CCNCC3)CC2)nc2ccc(NC(=O)NCCCN3CCCCCC3)cc12 [compound 0113, 1-(3-(azepan-1-yl)propyl)-3-(4-methyl-2-(4-(piperidin-4-ylmethyl)piperazin-1-yl)quinolin-6-yl)urea] | 0.34% |
| CCN(CC)CCNC(=O)C(=O)Nc1ccc2nc(N3CCN(CC)CC3)cc(C)c2c1 [compound 0114, N^1-(2-(diethylamino)ethyl)-N^2-(2-(4-ethylpiperazin-1-yl)-4-methylquinolin-6-yl)oxalamide] | 16% |
